The subject of the first series is mice. The experiment in a line: Oral toxicity in mice. Type of series: in vivo. The conditions noted are these: oral administration, 500 mg/kg.
Regarding `CCCOc1ccnc(C[S+]([O-])c2nc3ccccc3[nH]2)c1` (centres unmarked) [R^1 =H, R^2 =H, R^3 =(CH2)2 CH3, R^4 =H], the fatal effect result is “no fatal effect”.

Another series has as its system gastric mucosa. The experiment in a line: Ethanol-induced gastric mucosal injury in rats (action of protecting gastric mucosa). The conditions noted are these: Rattus norvegicus, po; 6 rats per group; 1, 3, 10 and 30 mg/kg into stomach; 100% ethanol 1 ml orally 30 min later; lesions measured 60 min after ethanol; read-out: Action of protecting gastric mucosa ID50. Type of series: in vivo, Male Sprague-Dawley rats. How it is done: As a method of determining the protecting ability of gastric mucosa, gastric mocosal injury induced by ethanol [Robert A., Gastroenterology 77, 761 (1979)] is often used. This method was applied to evaluation of the compounds of this invention. Male Sprague-Dawley rats of 7-weeks old were fasted for 24 hours. These animals were administered test compounds into stomach by using a gastric tube. After 30 minutes, 1 ml of 100% ethanol was administered orally. The animals were killed by carbon dioxide gas 60 minutes after ethanol administration. The stomach was removed together with the lower part of esophagus and the duodenum. The esophagus was clipped, 10 ml of 1% formalin solution was instilled into the stomach from the duodenum, and then the duodenum was clipped. The whole stomach was immersed in 1% formalin solution. About 15 minutes later, the stomachs were opened along the greater curvature. The length of the lesions which occurred in the gastric antral mucosa was measured under a dissecting microscope with a square-grid eye piece (×10). The sum total length of the individual lesions in each animal was measured, and the average value per group was calculated. Based on the difference between the average value of each group and that of the control group, the inhibition rate was determined. The test compound was suspended in a 5% gum arabic solution, and administered in a volume of 2 ml/kg. | ^(a) Using 6 rats per group, each of the test compounds was | administered in a dose of 1, 3, 10 and 30 mg/kg to determine ID50.
`CC(C)Oc1ccnc(C[S+]([O-])c2nc3cc(C(F)(F)F)ccc3[nH]2)c1` (centres unmarked): the ED50 stood at 5.8 mg/kg.
The same measure, in the same setting: then `CCCOc1ccnc(C[S+]([O-])c2nc3ccccc3[nH]2)c1C` (centres unmarked) [2-[3-methyl-4-propoxy-2-pyridyl)methylsulfinylbenzimidazole], with 12.5 mg/kg; and `COc1ccnc(C[S+]([O-])c2nc3cc(C(F)(F)F)ccc3[nH]2)c1C` (centres unmarked) [R^1 =5-CF3, R^2 =CH3, R^3 =CH3, R^4 =H, reference compound], with 24 mg/kg; and `CC(C)Oc1ccnc(C[S+]([O-])c2nc3cc(F)ccc3[nH]2)c1` (centres unmarked) [R^1 =5-F, R^2 =H, R^3 =CH(CH3)2, R^4 =H], with 8.8 mg/kg.
The same measure, in the same setting: with `CCCOc1ccnc(C[S+]([O-])c2nc3ccccc3[nH]2)c1` (centres unmarked) [R^1 =H, R^2 =H, R^3 =(CH2)2 CH3, R^4 =H] the figure was 7.2 mg/kg.
On the same count and under the same terms, then `CCCCOc1ccnc(C[S+]([O-])c2nc3ccccc3[nH]2)c1` (centres unmarked) [R^1 =H, R^2 =H, R^3 =(CH2)3 CH3, R^4 =H], with 9.8 mg/kg; and `CCCCCCOc1ccnc(C[S+]([O-])c2nc3ccccc3[nH]2)c1` (centres unmarked) [R^1 =H, R^2 =H, R^3 =(CH2)5 CH3, R^4 =H], with 1.6 mg/kg; and `CCCCCCCCOc1ccnc(C[S+]([O-])c2nc3ccccc3[nH]2)c1` (centres unmarked) [R^1 =H, R^2 =H, R^3 =(CH2)7 CH3, R^4 =H], with 1.6 mg/kg.
Take `CC(C)Oc1ccnc(C[S+]([O-])c2nc3ccccc3[nH]2)c1` (centres unmarked) [R^1 =H, R^2 =H, R^3 =CH(CH3)2, R^4 =H]: the ED50 came to 1.3 mg/kg.
Same read-out and setting: with `COc1ccc2[nH]c([S+]([O-])Cc3ncc(C)c(OC)c3C)nc2c1` (centres unmarked) [reference compound] the figure was 22 mg/kg.

These data come from US4727150A, “Pyridyl methylsulfinyl benzimidazole derivatives” (Takeda Chemical Industries, Ltd., priority 1984, dated 1988).
